# Reference: patent US20240000872A1, “NOVEL BACTERIOPHAGE THAT LYSES ACINETOBACTER GENUS BACTERIA HAVING RESISTANCE TO ANTIBIOTICS” (priority 2020, published 2024)
# Test system: Acinetobacter baumannii strains
# Experiment: Antibiotic susceptibility test (CLSI disk diffusion test method, read per CLSI 2016)
# Type: cell-based
# Method: Strain identification was performed using a kit such as AT 32 GN system (bioMérieux, Marcy l'Etoile, France). […] In Table 2 below, S, I, and R are the results obtained by evaluating susceptibility to the antibacterial agents, in which ‘S’ means susceptible, ‘I’ means intermediate, and ‘R’ means resistant.
# Strain identification was performed using a kit such as ATB 32 GN system (bioMédrieux, Marcy l'Etoile, France). […] In Table 6 below, S, I, and R are the results obtained by evaluating susceptibility to the antibacterial agents, in which ‘S’ means susceptible, ‘I’ means intermediate, and ‘R’ means resistant.
# Strain identification was performed using a kit such as ATB 32 GN system (bioMérieux, Marcy l'Etoile, France). […] In Table 10 below, S, I, and R are the results obtained by evaluating susceptibility to the antibacterial agents, in which ‘S’ means susceptible, T means intermediate, and ‘R’ means resistant.
compound,measurement,setting,value
"C[C@@H](O)[C@H]1C(=O)N2C(C(=O)O)=C(S[C@@H]3CN[C@H](C(=O)N(C)C)C3)[C@H](C)[C@H]12 [Meropenem, meropenem]",antibiotic susceptibility class,host strain YMC14/01/C29,R
same,antibiotic susceptibility class,host strain YMC14/01/IP122,R
same,antibiotic susceptibility class,host strain YMC14/01/L8,R
same,antibiotic susceptibility class,host strain YMC14/01/P31,R
same,antibiotic susceptibility class,host strain YMC14/01/P117,R
same,antibiotic susceptibility class,host strain YMC14/01/P224,R
same,antibiotic susceptibility class,host strain YMC14/01/P727,R
same,antibiotic susceptibility class,host strain YMC14/01/P728,R
same,antibiotic susceptibility class,host strain YMC14/01/R130,R
same,antibiotic susceptibility class,host strain YMC14/01/R160,R
same,antibiotic susceptibility class,host strain YMC14/01/R198,R
same,antibiotic susceptibility class,host strain YMC14/01/R257,R
same,antibiotic susceptibility class,host strain YMC14/01/R270,R
same,antibiotic susceptibility class,host strain YMC14/01/R324,R
same,antibiotic susceptibility class,host strain YMC14/01/R443,R
same,antibiotic susceptibility class,host strain YMC14/01/R451,R
same,antibiotic susceptibility class,host strain YMC14/01/R560,R
same,antibiotic susceptibility class,host strain YMC14/01/R617,R
same,antibiotic susceptibility class,host strain YMC14/01/R671,R
same,antibiotic susceptibility class,host strain YMC14/01/R732,R
same,antibiotic susceptibility class,host strain YMC14/01/R767,R
same,antibiotic susceptibility class,host strain YMC14/01/R904,R
same,antibiotic susceptibility class,host strain YMC14/01/R905,R
same,antibiotic susceptibility class,host strain YMC14/01/R921,R
same,antibiotic susceptibility class,host strain YMC14/01/R941,R
same,antibiotic susceptibility class,host strain YMC14/01/R958,R
same,antibiotic susceptibility class,host strain YMC14/01/R1006,R
same,antibiotic susceptibility class,host strain YMC14/01/R1199,R
same,antibiotic susceptibility class,host strain YMC14/01/R1659,R
same,antibiotic susceptibility class,host strain YMC14/01/R1722,R
same,antibiotic susceptibility class,host strain YMC14/01/R1752,R
same,antibiotic susceptibility class,host strain YMC14/01/R2429,R
same,antibiotic susceptibility class,host strain YMC14/01/R2572,R
same,antibiotic susceptibility class,host strain YMC14/01/R2855,R
same,antibiotic susceptibility class,host strain YMC14/01/R2945,R
same,antibiotic susceptibility class,host strain YMC14/01/R3007,R
same,antibiotic susceptibility class,host strain YMC14/01/R3129,R
same,antibiotic susceptibility class,host strain YMC14/01/R3317,R
same,antibiotic susceptibility class,host strain YMC14/01/R3474,R
same,antibiotic susceptibility class,host strain YMC14/01/R3574,R
same,antibiotic susceptibility class,host strain YMC14/01/U313,R
same,antibiotic susceptibility class,host strain YMC14/01/U318,R
same,antibiotic susceptibility class,host strain YMC14/02/L18,R
same,antibiotic susceptibility class,host strain YMC14/02/P47,R
same,antibiotic susceptibility class,host strain YMC14/02/R1860,R
same,antibiotic susceptibility class,host strain YMC14/02/R2417,R
same,antibiotic susceptibility class,host strain YMC14/02/R2599,R
same,antibiotic susceptibility class,host strain YMC14/02/R2668,R
same,antibiotic susceptibility class,host strain YMC14/02/R2758,R
same,antibiotic susceptibility class,host strain YMC14/02/R2781,R
same,antibiotic susceptibility class,host strain YMC14/02/R3106,R
same,antibiotic susceptibility class,host strain YMC14/02/R3419,R
same,antibiotic susceptibility class,host strain YMC14/02/U1607,R
same,antibiotic susceptibility class,host strain YMC14/03/L9,R
same,antibiotic susceptibility class,host strain YMC14/03/P471,R
same,antibiotic susceptibility class,host strain YMC14/03/R122,R
same,antibiotic susceptibility class,host strain YMC14/03/R217,R
same,antibiotic susceptibility class,host strain YMC14/03/R380,R
same,antibiotic susceptibility class,host strain YMC14/03/R618,R
same,antibiotic susceptibility class,host strain YMC14/03/R2144,R
same,antibiotic susceptibility class,host strain YMC14/03/U4616,R
same,antibiotic susceptibility class,host strain YMC14/04/R1078,R
same,antibiotic susceptibility class,host strain YMC14/04/R1080,R
same,antibiotic susceptibility S/I/R,host strain YMC14/06/R2359,R
same,susceptibility category (S/I/R),host strain YMC14/06/R2359,R
same,antibiotic susceptibility S/I/R,host strain YMC14/08/R1169,R
same,susceptibility category (S/I/R),host strain YMC14/08/R1169,R
same,antibiotic susceptibility S/I/R,host strain YMC14/08/T90,R
same,susceptibility category (S/I/R),host strain YMC14/08/T90,R
same,antibiotic susceptibility S/I/R,host strain YMC15/02/R436,R
same,susceptibility category (S/I/R),host strain YMC15/02/R436,R
same,antibiotic susceptibility S/I/R,host strain YMC15/02/T28,R
same,susceptibility category (S/I/R),host strain YMC15/02/T28,R
same,antibiotic susceptibility S/I/R,host strain YMC15/03/R1604,R
same,susceptibility category (S/I/R),host strain YMC15/03/R1604,R
same,antibiotic susceptibility S/I/R,host strain YMC15/09/R1869,R
same,susceptibility category (S/I/R),host strain YMC15/09/R1869,R
same,antibiotic susceptibility S/I/R,host strain YMC16/01/P11,R
same,susceptibility category (S/I/R),host strain YMC16/01/P11,R
same,antibiotic susceptibility S/I/R,host strain YMC16/01/R123,R
same,susceptibility category (S/I/R),host strain YMC16/01/R123,R
same,antibiotic susceptibility S/I/R,host strain YMC16/01/R198,R
same,susceptibility category (S/I/R),host strain YMC16/01/R198,R
same,antibiotic susceptibility S/I/R,host strain YMC16/01/R353,R
same,susceptibility category (S/I/R),host strain YMC16/01/R353,R
same,antibiotic susceptibility S/I/R,host strain YMC16/01/R380,R
same,susceptibility category (S/I/R),host strain YMC16/01/R380,R
same,antibiotic susceptibility S/I/R,host strain YMC16/01/R397,R
same,susceptibility category (S/I/R),host strain YMC16/01/R397,R
same,antibiotic susceptibility S/I/R,host strain YMC16/01/R405,R
same,susceptibility category (S/I/R),host strain YMC16/01/R405,R
same,antibiotic susceptibility S/I/R,host strain YMC16/03/R4461,R
same,susceptibility category (S/I/R),host strain YMC16/03/R4461,R
same,antibiotic susceptibility S/I/R,host strain YMC16/05/R2210,R
same,susceptibility category (S/I/R),host strain YMC16/05/R2210,R
same,antibiotic susceptibility S/I/R,host strain YMC16/07/R2512,R
same,susceptibility category (S/I/R),host strain YMC16/07/R2512,R
same,antibiotic susceptibility S/I/R,host strain YMC16/09/R2471,R
same,susceptibility category (S/I/R),host strain YMC16/09/R2471,R
same,antibiotic susceptibility S/I/R,host strain YMC16/10/R2537,R
same,susceptibility category (S/I/R),host strain YMC16/10/R2537,R
same,antibiotic susceptibility S/I/R,host strain YMC16/12/B11422,R
same,susceptibility category (S/I/R),host strain YMC16/12/B11422,R
same,antibiotic susceptibility S/I/R,host strain YMC16/12/B11449,R
same,susceptibility category (S/I/R),host strain YMC16/12/B11449,R
same,antibiotic susceptibility S/I/R,host strain YMC16/12/B13325,R
same,susceptibility category (S/I/R),host strain YMC16/12/B13325,R
same,antibiotic susceptibility S/I/R,host strain YMC16/12/P503,R
same,susceptibility category (S/I/R),host strain YMC16/12/P503,R
same,antibiotic susceptibility S/I/R,host strain YMC16/12/R4637,R
same,susceptibility category (S/I/R),host strain YMC16/12/R4637,R
same,antibiotic susceptibility S/I/R,host strain YMC17/01/B8053,R
same,susceptibility category (S/I/R),host strain YMC17/01/B8053,R
same,antibiotic susceptibility S/I/R,host strain YMC17/01/B10087,R
same,susceptibility category (S/I/R),host strain YMC17/01/B10087,R
same,antibiotic susceptibility S/I/R,host strain YMC17/01/B12075,R
same,susceptibility category (S/I/R),host strain YMC17/01/B12075,R
same,antibiotic susceptibility S/I/R,host strain YMC17/01/B13454,R
same,susceptibility category (S/I/R),host strain YMC17/01/B13454,R
same,antibiotic susceptibility S/I/R,host strain YMC17/01/P518,R
same,susceptibility category (S/I/R),host strain YMC17/01/P518,R
same,antibiotic susceptibility S/I/R,host strain YMC17/01/R2812,R
same,susceptibility category (S/I/R),host strain YMC17/01/R2812,R
same,antibiotic susceptibility S/I/R,host strain YMC17/02/B14,R
same,susceptibility category (S/I/R),host strain YMC17/02/B14,R
same,antibiotic susceptibility S/I/R,host strain YMC17/02/B87,R
same,susceptibility category (S/I/R),host strain YMC17/02/B87,R
same,antibiotic susceptibility S/I/R,host strain YMC17/02/B721,R
same,susceptibility category (S/I/R),host strain YMC17/02/B721,R
same,antibiotic susceptibility S/I/R,host strain YMC17/02/B4039,R
same,susceptibility category (S/I/R),host strain YMC17/02/B4039,R
same,antibiotic susceptibility S/I/R,host strain YMC17/02/B4520,R
same,susceptibility category (S/I/R),host strain YMC17/02/B4520,R
same,antibiotic susceptibility S/I/R,host strain YMC17/02/B4864,S
same,susceptibility category (S/I/R),host strain YMC17/02/B4864,S
same,antibiotic susceptibility S/I/R,host strain YMC17/02/B8414,R
same,susceptibility category (S/I/R),host strain YMC17/02/B8414,R
same,antibiotic susceptibility S/I/R,host strain YMC17/02/P523,R
same,susceptibility category (S/I/R),host strain YMC17/02/P523,R
same,antibiotic susceptibility S/I/R,host strain YMC17/02/R541,R
same,susceptibility category (S/I/R),host strain YMC17/02/R541,R
same,antibiotic susceptibility S/I/R,host strain YMC17/02/R2392,R
same,susceptibility category (S/I/R),host strain YMC17/02/R2392,R
same,antibiotic susceptibility S/I/R,host strain YMC17/03/B4730,R
same,susceptibility category (S/I/R),host strain YMC17/03/B4730,R
same,antibiotic susceptibility S/I/R,host strain YMC17/03/B5000,R
same,susceptibility category (S/I/R),host strain YMC17/03/B5000,R
same,antibiotic susceptibility S/I/R,host strain YMC17/03/P971,R
same,susceptibility category (S/I/R),host strain YMC17/03/P971,R
same,antibiotic susceptibility S/I/R,host strain YMC17/03/R348,R
same,susceptibility category (S/I/R),host strain YMC17/03/R348,R
same,antibiotic susceptibility S/I/R,host strain YMC17/03/R585,R
same,susceptibility category (S/I/R),host strain YMC17/03/R585,R
same,antibiotic susceptibility S/I/R,host strain YMC17/03/R1888,R
same,susceptibility category (S/I/R),host strain YMC17/03/R1888,R
same,antibiotic susceptibility S/I/R,host strain YMC17/03/R3279,R
same,susceptibility category (S/I/R),host strain YMC17/03/R3279,R
same,antibiotic susceptibility S/I/R,host strain YMC17/03/R4077,R
same,susceptibility category (S/I/R),host strain YMC17/03/R4077,R
same,antibiotic susceptibility S/I/R,host strain YMC17/03/R4607,R
same,susceptibility category (S/I/R),host strain YMC17/03/R4607,R
same,antibiotic susceptibility S/I/R,host strain YMC17/04/R488,R
same,susceptibility category (S/I/R),host strain YMC17/04/R488,R
same,antibiotic susceptibility S/I/R,host strain YMC17/04/R640,R
same,susceptibility category (S/I/R),host strain YMC17/04/R640,R
same,antibiotic susceptibility S/I/R,host strain YMC/17/05/R1095,R
same,susceptibility category (S/I/R),host strain YMC/17/05/R1095,R
